The values below are quoted from earlier work in US7910613B2, “2-acylaminothiazole derivatives” (H. Lundbeck A/S, priority 2004, dated 2011).

The test system of series [1] is mice. The settings on record: mouse forced swimming test.
Series [2] has as its system mice. Particulars: for total immobility time: mouse tail suspension test.
For series [3], the system named is unilateral 6-OHDA (6-hydroxydopamine) lesioned mice and rats. The settings on record: elicited by a subtreshold dose of levodopa.
For series [4], the system named is MPTP treated mice and 6-OHDA-lesioned rats.
Where [5] appears, read: mice previously screened for having high immobility time.

The structures appear in SMILES notation. Like-named read-outs stand apart in the source and are kept apart here.

With `Nc1nc(Cl)nc2c1ncn2[C@@H]1O[C@H](CO)[C@@H](O)[C@H]1O` [2-chloroadenosine], in the series with mice [1], the immobility time entry is “increased immobility time”.
Turning to `Nc1nc(NCCc2ccc(O)cc2)nc2nc(-c3ccco3)nn12` [ZM241385, 4-(2-[7-amino-2-(2-furyl)[1,2,4]triazolo[2,3-a][1,3,5]triazin-5-ylamino]-ethyl)phenol], in the series with mice [2] (setting [5]), the immobility result is “reduce immobility”.
For the molecule `CCn1c(=O)c2c(nc(/C=C/c3ccc(OC)c(OC)c3)n2C)n(CC)c1=O` [KW-6002, 8-[(1E)-2-(3,4-dimethoxyphenyl)ethenyl]-1,3-diethyl-3,7-dihydro-7-methyl-1H-purine-2,6-dione], the contralateral rotations result in series [3] is listed as “enhance contralateral rotations”. In the series on non-human primates, the “motor impairment induced by MPTP” value is “significantly improves motor impairment”. The dyskinesias result in the series with non-human primates (MPTP) was “without causing dyskinesias”. Besides, in series [4], the “functional loss of dopaminergic nerve terminals in the striatum” value was “prevented functional loss of dopaminergic nerve terminals in the striatum” and the “gliosis normally induced around degenerating neurons” value is listed as “prevented gliosis”. The total immobility time result with mice [2] is “reduced the total immobility time”.
For `Nc1ncnc2c1ncn2[C@@H]1O[C@H](CO)[C@@H](O)[C@H]1O` [adenosine], the immobility time entry in the series with mice [1] is on record as “increased immobility time”.
In the case of `Nc1nc2c(cnn2CCc2ccccc2)c2nc(-c3ccco3)nn12` [SCH58261, 2-(2-furanyl)-7-(2-phenylethyl)-7H-pyrazolo[4,3-e][1,2,4]triazolo[1,5-c]pyrimidin-5-amine], the contralateral rotations entry in series [3] is “enhance contralateral rotations”. Besides, the immobility entry is given as “reduce immobility” in the series with mice [2] (setting [5]) and “reduced immobility” in the series on mice [2] (mice selectively bred for their helplessness). In the series with mice [2], the total immobility time result is “reduced the total immobility time”.
